In the NIST ThermoML archive (doi:10.1021/je900656c) one finds viscosity and mass density data, which are given here for four molecules.

Numbers after ± are expanded uncertainties.

For data set [1] the following is noted: 303.15 K, 101 kPa, Liquid; for viscosity: Capillary tube (Ostwald / Ubbelohde) method; for mass density: Pycnometric method.
Data set [2] is described as follows: wn = mass fraction of the nth substance listed. As to conditions: 303.15 K, 101 kPa, Liquid; for viscosity: Capillary tube (Ostwald / Ubbelohde) method; for mass density: Pycnometric method.

Take `COCCO` [2-methoxyethan-1-ol]: in data set [1], the viscosity (in general, the internal friction of a fluid under shear) was found to be 1.404 ± 0.023 mPa·s and the mass density (in general, mass per unit of volume) came out at 956 ± 2 kg/m3.
On to `COCCO` [2-methoxyethan-1-ol] + CO, for which the viscosity in data set [2] (w1 = 0.1) is listed as 0.538 ± 0.011 mPa·s; in data set [2] (w1 = 0.2), 0.557 ± 0.011 mPa·s; in data set [2] (w1 = 0.3) it was 0.577 ± 0.011 mPa·s; in data set [2] (w1 = 1), 1.404 ± 0.023 mPa·s. In addition, the mass density in data set [2] (w1 = 0.1) stood at 798 ± 1 kg/m3; in data set [2] (w1 = 0.2), 817 ± 2 kg/m3; in data set [2] (w1 = 0.3), 833 ± 2 kg/m3; in data set [2] (w1 = 1), 956 ± 2 kg/m3.
As to `CO` [methanol], in data set [1], the viscosity turned out to be 0.523 ± 0.01 mPa·s and the mass density was determined as 782 ± 1 kg/m3.
For the molecule `CO` [methanol] + COCCO, in data set [2] (w2 = 0), the viscosity is 0.523 ± 0.01 mPa·s and the mass density was determined as 782 ± 1 kg/m3.
